Source: ChEMBL document CHEMBL5291721, “A preclinical secondary pharmacology resource illuminates target-adverse drug reaction associations of marketed drugs” (Nat Commun, 2023)

Key:
[1] = target: T1, 5-hydroxytryptamine receptor 3A (Homo sapiens, UniProt P46098); assay type: functional
T1 sequence (P46098 whole entry): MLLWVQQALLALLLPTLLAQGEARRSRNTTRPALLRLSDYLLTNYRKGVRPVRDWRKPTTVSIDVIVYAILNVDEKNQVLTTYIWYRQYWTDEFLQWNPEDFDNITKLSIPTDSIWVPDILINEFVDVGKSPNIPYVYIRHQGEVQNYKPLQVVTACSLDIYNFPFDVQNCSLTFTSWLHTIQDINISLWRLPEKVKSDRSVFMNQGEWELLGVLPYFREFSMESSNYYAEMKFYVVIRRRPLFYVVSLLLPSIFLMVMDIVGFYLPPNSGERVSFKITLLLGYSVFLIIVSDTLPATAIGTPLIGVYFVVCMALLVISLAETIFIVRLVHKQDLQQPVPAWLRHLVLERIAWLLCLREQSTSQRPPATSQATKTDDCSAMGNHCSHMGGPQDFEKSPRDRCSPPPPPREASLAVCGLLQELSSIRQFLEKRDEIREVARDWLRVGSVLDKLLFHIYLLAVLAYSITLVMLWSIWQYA

Histamine H2 receptor = Histamine H2 receptor (Homo sapiens, UniProt P25021); assay type: functional, cell-based
Sequence of Histamine H2 receptor (P25021 whole entry): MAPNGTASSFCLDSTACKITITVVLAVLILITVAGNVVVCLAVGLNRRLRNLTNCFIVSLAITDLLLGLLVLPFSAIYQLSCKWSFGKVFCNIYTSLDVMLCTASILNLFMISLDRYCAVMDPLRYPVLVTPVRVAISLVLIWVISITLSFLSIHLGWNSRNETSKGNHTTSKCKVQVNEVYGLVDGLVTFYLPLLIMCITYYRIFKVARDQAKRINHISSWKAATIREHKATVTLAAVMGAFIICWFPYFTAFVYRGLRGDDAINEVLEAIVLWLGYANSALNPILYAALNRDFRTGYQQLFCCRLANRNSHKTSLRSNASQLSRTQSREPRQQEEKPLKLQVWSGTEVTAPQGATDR

[2] = target: T2, Alpha-1A adrenergic receptor (Homo sapiens, UniProt P35348); assay type: functional, cell-based
T2 sequence (P35348 whole entry): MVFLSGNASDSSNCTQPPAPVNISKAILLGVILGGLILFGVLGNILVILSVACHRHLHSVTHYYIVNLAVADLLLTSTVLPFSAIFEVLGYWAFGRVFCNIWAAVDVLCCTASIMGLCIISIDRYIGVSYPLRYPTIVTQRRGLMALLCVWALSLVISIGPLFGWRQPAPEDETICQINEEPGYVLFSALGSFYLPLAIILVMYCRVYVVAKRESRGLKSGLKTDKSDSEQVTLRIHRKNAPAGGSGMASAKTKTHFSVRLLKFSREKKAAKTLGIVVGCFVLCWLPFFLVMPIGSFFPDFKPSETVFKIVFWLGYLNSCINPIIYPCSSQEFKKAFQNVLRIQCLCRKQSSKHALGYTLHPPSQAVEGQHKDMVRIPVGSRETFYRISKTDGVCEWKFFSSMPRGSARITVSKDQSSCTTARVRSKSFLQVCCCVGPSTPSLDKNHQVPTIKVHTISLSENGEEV

[3] = target: 3',5'-cyclic-AMP phosphodiesterase 4D (Homo sapiens, UniProt Q08499); assay type: functional
Sequence of 3',5'-cyclic-AMP phosphodiesterase 4D (Q08499 whole entry): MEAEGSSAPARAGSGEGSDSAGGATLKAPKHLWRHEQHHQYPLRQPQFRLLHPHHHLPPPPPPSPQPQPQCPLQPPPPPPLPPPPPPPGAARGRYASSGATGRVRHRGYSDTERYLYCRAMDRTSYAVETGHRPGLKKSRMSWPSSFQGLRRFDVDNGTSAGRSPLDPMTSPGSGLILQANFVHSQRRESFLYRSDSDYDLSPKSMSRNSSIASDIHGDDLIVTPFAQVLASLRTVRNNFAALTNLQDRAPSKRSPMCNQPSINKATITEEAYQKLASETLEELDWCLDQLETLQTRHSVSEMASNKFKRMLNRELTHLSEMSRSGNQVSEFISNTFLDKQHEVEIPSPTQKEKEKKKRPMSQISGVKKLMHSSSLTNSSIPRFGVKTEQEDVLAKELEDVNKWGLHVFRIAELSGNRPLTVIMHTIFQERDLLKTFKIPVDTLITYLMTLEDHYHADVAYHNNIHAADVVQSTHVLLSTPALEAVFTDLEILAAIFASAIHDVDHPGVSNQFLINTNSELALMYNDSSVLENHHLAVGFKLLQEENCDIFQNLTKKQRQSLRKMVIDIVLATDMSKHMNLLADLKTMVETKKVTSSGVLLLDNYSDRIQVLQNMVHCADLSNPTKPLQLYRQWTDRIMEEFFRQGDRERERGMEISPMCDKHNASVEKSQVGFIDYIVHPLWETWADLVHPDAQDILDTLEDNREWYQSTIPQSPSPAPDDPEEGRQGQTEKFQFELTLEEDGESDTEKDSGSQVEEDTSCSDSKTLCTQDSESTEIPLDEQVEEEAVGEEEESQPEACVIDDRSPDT

[4] = target: T3, 5-hydroxytryptamine receptor 2C (Homo sapiens, UniProt P28335)
T3 sequence (P28335 whole entry): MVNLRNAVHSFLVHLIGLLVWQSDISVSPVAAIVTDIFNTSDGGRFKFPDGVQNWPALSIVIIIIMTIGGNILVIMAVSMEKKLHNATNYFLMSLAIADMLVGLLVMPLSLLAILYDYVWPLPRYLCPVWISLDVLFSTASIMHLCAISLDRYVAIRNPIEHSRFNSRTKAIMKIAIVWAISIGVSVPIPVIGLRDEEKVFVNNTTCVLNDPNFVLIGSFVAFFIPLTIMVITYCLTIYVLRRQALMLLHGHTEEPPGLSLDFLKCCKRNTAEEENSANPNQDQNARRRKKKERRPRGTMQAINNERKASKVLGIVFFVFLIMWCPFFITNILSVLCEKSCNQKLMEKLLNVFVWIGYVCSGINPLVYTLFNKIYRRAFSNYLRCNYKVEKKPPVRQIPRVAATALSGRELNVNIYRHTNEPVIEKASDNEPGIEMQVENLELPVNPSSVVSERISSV

B2 bradykinin receptor = target: T4, B2 bradykinin receptor (Homo sapiens, UniProt P30411)
T4 sequence (P30411 whole entry): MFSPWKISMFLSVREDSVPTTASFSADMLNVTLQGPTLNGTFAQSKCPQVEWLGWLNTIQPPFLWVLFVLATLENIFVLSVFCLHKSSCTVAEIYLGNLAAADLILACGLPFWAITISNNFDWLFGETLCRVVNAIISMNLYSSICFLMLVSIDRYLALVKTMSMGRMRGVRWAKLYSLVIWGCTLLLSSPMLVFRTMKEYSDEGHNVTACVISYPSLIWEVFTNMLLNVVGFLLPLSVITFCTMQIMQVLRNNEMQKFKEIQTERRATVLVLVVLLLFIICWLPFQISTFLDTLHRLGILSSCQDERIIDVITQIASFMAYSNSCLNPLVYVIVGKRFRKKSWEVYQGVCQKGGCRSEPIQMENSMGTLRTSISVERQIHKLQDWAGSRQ

[5] = target: Growth hormone secretagogue receptor type 1 (Homo sapiens, UniProt Q92847)
Sequence of Growth hormone secretagogue receptor type 1 (Q92847 whole entry): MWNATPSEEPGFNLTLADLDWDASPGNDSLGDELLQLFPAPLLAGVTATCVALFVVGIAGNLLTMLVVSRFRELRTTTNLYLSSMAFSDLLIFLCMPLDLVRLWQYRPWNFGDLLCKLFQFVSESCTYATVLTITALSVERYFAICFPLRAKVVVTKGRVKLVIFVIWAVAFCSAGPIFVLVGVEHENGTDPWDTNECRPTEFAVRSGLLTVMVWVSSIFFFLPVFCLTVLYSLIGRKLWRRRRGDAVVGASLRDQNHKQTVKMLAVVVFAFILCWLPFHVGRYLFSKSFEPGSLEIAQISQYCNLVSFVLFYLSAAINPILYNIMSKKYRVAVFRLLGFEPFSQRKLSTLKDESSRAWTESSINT

[6] = target: Sodium-dependent noradrenaline transporter (Homo sapiens, UniProt P23975)
Sequence of Sodium-dependent noradrenaline transporter (P23975 whole entry): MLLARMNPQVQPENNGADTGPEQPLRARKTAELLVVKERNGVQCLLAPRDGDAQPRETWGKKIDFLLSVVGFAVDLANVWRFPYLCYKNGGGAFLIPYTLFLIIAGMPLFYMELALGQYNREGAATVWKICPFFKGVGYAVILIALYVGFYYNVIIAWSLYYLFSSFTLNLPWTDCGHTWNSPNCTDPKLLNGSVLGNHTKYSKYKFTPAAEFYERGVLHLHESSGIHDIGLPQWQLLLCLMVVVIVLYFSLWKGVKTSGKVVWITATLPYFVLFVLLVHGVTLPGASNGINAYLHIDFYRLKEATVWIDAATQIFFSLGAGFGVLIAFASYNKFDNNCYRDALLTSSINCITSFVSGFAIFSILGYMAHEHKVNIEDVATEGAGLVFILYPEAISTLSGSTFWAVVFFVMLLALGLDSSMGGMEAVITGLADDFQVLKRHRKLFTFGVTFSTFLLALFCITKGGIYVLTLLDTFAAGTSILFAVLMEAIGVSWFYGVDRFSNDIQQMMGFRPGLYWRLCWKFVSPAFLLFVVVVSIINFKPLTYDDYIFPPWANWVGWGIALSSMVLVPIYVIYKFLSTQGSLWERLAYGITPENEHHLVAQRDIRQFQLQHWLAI

[7] = target: Sodium-dependent dopamine transporter (Homo sapiens, UniProt Q01959)
Sequence of Sodium-dependent dopamine transporter (Q01959 whole entry): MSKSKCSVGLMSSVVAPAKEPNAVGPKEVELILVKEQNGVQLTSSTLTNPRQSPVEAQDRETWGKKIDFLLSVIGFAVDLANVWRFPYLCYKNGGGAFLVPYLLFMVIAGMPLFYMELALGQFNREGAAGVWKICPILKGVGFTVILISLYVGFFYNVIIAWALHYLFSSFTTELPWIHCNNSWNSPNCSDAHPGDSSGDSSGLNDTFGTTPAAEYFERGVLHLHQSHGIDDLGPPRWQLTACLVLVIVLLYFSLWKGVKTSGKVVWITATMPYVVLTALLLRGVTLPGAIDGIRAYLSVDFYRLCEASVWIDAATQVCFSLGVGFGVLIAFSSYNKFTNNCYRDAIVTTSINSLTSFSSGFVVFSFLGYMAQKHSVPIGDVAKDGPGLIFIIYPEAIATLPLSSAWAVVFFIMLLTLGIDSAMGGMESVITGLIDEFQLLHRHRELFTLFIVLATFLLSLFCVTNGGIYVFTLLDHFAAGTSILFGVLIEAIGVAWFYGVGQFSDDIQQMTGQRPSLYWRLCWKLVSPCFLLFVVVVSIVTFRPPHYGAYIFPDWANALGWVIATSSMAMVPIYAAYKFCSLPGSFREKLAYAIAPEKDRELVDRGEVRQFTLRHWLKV
Note: assay procedure not described here.

Compound COLISTIN has an AC50 [1] of over 30 µM, an AC50 (Histamine H2 receptor) of over 30 µM and an AC50 [2] of over 30 µM. It also gave an AC50 [3] of over 30 µM and an AC50 [4] of over 30 µM.
For `CC(=O)OCC(=O)[C@@]1(O)CC[C@H]2[C@@H]3CCC4=CC(=O)CC[C@]4(C)C3=CC[C@@]21C` [ANECORTAVE ACETATE], the AC50 [1] was over 30 µM, the AC50 (Histamine H2 receptor) was over 10 µM and the AC50 (B2 bradykinin receptor) was over 10 µM. For the same compound, the AC50 [2] was over 30 µM, the AC50 [5] was over 10 µM and the AC50 [6] was over 10 µM. It also gave an AC50 [7] of over 10 µM, an AC50 [3] of over 30 µM and an AC50 [4] of over 30 µM.
Work on `C=CC(N)CCC(=O)O` (stereo unspecified) [VIGABATRIN] yielded an AC50 [1] of over 30 µM, an AC50 (Histamine H2 receptor) of over 10 µM and an AC50 (B2 bradykinin receptor) of over 10 µM. For the same compound, the AC50 [2] was over 30 µM, the AC50 [5] was over 10 µM and the AC50 [6] was 21.7 µM. The AC50 [7] was 19.5 µM, the AC50 [3] was over 30 µM and the AC50 [4] was over 30 µM.
`COc1cc2nccc(Oc3ccc(NC(=O)Nc4cc(C)on4)c(Cl)c3)c2cc1OC` [TIVOZANIB] showed an AC50 [2] of over 30 µM, an AC50 [6] of over 3 µM and an AC50 [7] of 2.6 µM. It also gave an AC50 [3] of 27 µM.
`CC(=O)O[C@H]1C[C@@H]2CC[C@@H]3[C@H](CC[C@@]4(C)[C@H]3C[C@H]([N+]3(C)CCCCC3)[C@@H]4OC(C)=O)[C@@]2(C)C[C@@H]1[N+]1(C)CCCCC1` [PANCURONIUM] showed an AC50 [1] of over 30 µM, an AC50 (Histamine H2 receptor) of over 10 µM and an AC50 (B2 bradykinin receptor) of over 10 µM. It also gave an AC50 [5] of over 10 µM, an AC50 [6] of over 10 µM and an AC50 [7] of over 10 µM. The AC50 [3] was over 30 µM and the AC50 [4] was over 30 µM.
`Cc1cccc(N(C)C(=S)Oc2ccc3ccccc3c2)c1` [TOLNAFTATE] gave an AC50 [1] of over 30 µM, an AC50 (Histamine H2 receptor) of over 30 µM and an AC50 (B2 bradykinin receptor) of over 10 µM. It also gave an AC50 [2] of over 30 µM, an AC50 [5] of over 10 µM and an AC50 [6] of over 10 µM. It also gave an AC50 [7] of over 10 µM, an AC50 [3] of over 30 µM and an AC50 [4] of over 30 µM.
With `NC(=O)CCC/N=C(\c1ccc(Cl)cc1)c1cc(F)ccc1O` [PROGABIDE] the AC50 [1] was over 30 µM, the AC50 (Histamine H2 receptor) was over 10 µM and the AC50 (B2 bradykinin receptor) was over 10 µM. It also gave an AC50 [2] of over 30 µM, an AC50 [5] of over 10 µM and an AC50 [6] of over 10 µM. For the same compound, the AC50 [7] was over 10 µM, the AC50 [3] was over 10 µM and the AC50 [4] was over 30 µM.
Work on `C[n+]1ccccc1/C=N/O` [PRALIDOXIME] yielded an AC50 [1] of over 30 µM, an AC50 (Histamine H2 receptor) of over 30 µM and an AC50 [2] of over 30 µM. For the same compound, the AC50 [3] was 24 µM and the AC50 [4] was over 30 µM.
Compound `C[C@@H]1C[C@H]2[C@@H]3C[C@H](F)C4=CC(=O)C=C[C@]4(C)[C@@]3(F)[C@@H](O)C[C@]2(C)[C@H]1C(=O)CO` [DIFLUCORTOLONE] has an AC50 [6] of over 30 µM, an AC50 [7] of over 30 µM and an AC50 [3] of over 30 µM.
Compound `CC1(C)C(C=C(Cl)Cl)C1C(=O)OCc1cccc(Oc2ccccc2)c1` (stereo unspecified) [PERMETHRIN] has an AC50 [1] of over 30 µM, an AC50 (Histamine H2 receptor) of over 10 µM and an AC50 (B2 bradykinin receptor) of over 10 µM. The AC50 [5] was over 10 µM, the AC50 [6] was over 10 µM and the AC50 [7] was over 10 µM. It also gave an AC50 [3] of over 30 µM and an AC50 [4] of over 30 µM.
In the case of `CC(=O)Nc1c(I)c(C(=O)N[C@H]2C(O)O[C@H](CO)[C@@H](O)[C@@H]2O)c(I)c(N(C)C(C)=O)c1I` (stereo partly specified) [METRIZAMIDE], the AC50 [1] is reported as over 30 µM, the AC50 (Histamine H2 receptor) is reported as over 10 µM and the AC50 (B2 bradykinin receptor) is reported as over 10 µM. For the same compound, the AC50 [2] was over 30 µM, the AC50 [5] was over 10 µM and the AC50 [6] was over 10 µM. It also gave an AC50 [7] of over 10 µM, an AC50 [3] of over 30 µM and an AC50 [4] of over 30 µM.
Compound `NS(=O)(=O)c1cc2c(cc1C(F)(F)F)NC(Cc1ccccc1)NS2(=O)=O` (stereo unspecified) [BENDROFLUMETHIAZIDE] has an AC50 [1] of over 30 µM, an AC50 (Histamine H2 receptor) of over 10 µM and an AC50 (B2 bradykinin receptor) of over 10 µM. The AC50 [5] was over 10 µM, the AC50 [6] was over 30 µM and the AC50 [7] was 3.2 µM. For the same compound, the AC50 [3] was over 30 µM and the AC50 [4] was over 30 µM.
